The values that follow come from patent US9061060B2, “Deuterated benzylbenzene derivatives and methods of use” (Theracos Inc., priority 2008, dated 2015).

Series [1] can be described thus: Pharmacokinetic parameters in SD rats. The note with it: single oral 3 mg/kg in 30% PEG400, plasma; for CL/F / AUC(0-t) / Cmax / Tmax / half-life: Sprague-Dawley, rat; for AUC(0-t): read-out: AUC0-t (mean ± SD); for half-life: read-out: t1/2 (mean ± SD) (converted). Format: in vivo, Sprague-Dawley rats. On the procedure: The pharmacokinetic study of each test compound was conducted in 4 Sprague-Dawley rats following a single oral administration of 3 mg/kg of the compound. The dose was prepared by dissolving test article in appropriate volume of 30% PEG400. The plasma samples were collected from the orbital plexus at 0.083, 0.25, 0.50, 1.0, 2.0, 4.0, 6.0, 8.0, 12 and 24 hours post dose, and the plasma concentrations were determined by a developed LC-MS/MS method.

For the next series, the system named is SD rats. The series is described as follows: Urinary glucose excretion in SD rats. The class given is in vivo. Conditions: 1 mg/kg oral. On the procedure:
Each test compound was dissolved in 30% PEG400 and administered orally to overnight-fasted SD rats by gavage at the dose level of 1 mg/kg. Control rats were given 30% PEG400 only. One hour post dosing, glucose solution (2 g/kg, 10 mL/kg) was administered by oral gavage. Urine was collected within metabolic cages from 0 to 4 hours, and 4 to 24 hours post-dosing for urine volume and glucose measurement. Food was removed 16 hours before dosing and then provided 4 hours after dosing. Water was supplied ad libitum. The concentration of urinary glucose was determined at 4 hours and 24 hours post-dose using a biochemistry analyzer. Results were recorded for the periods 0-4 hours, 4-24 hours and 0-24 hours, and expressed as a percentage of the urinary glucose excretion (UGE) seen with reference compound A, which was run as a positive control in all experiments.

Another series deals with beagle dogs. The series is described as follows: Urinary glucose excretion in beagle dogs. The class given is in vivo. The procedure: Each test compound was dissolved in 10% PEG400 and administered orally to overnight-fasted beagle dogs by gavage at the dose level of 0.03 mg/kg. Control dogs were given 10% PEG400 only. One hour post dosing, glucose solution (2 g/kg, 5 mL/kg) was administered by oral gavage. Urine was collected within metabolic cages from 0 to 8 hours, and 8 to 24 hours post-dosing for urine volume and glucose measurement. Food was removed 16 hours before dosing and then provided 3 hours after dosing. Water was supplied ad libitum. The concentration of urinary glucose was determined at 8 hours and 24 hours post-dose using a biochemistry analyzer.

A short description of series [2]: Pharmacokinetic parameters in Beagle dogs. The class given is in vivo. The note with it: dog, single oral 1 mg/kg in 30% PEG400, plasma; for AUC(0-t): read-out: AUC0-t (mean ± SD); for CL/F: read-out: CL/F (mean ± SD) (converted); for Cmax: read-out: Cmax (mean ± SD); for Tmax: read-out: tmax (mean ± SD). The procedure:
The pharmacokinetic study of each test compound was conducted in three Beagle dogs following a single oral administration of 1 mg/kg of the compound. The dose was prepared by dissolving test article in appropriate volume of 30% PEG400. The plasma samples were collected from the cephalic vein pre-dose and at 0.25, 0.50, 1.0, 2.0, 4.0, 6.0, 8.0, 12 and 24 hours post dose, and the plasma concentrations were determined by a developed LC-MS/MS method.

The mark [3] stands for this setting: separate experiment (Table 4A), 0-24 h.

Usually Cmax stands for the peak of the concentration-time curve. For orientation: Tmax means the time at which the peak concentration occurs.

For the compound `[2H]C([2H])(C)Oc1ccc(Cc2cc([C@@H]3O[C@H](CO)[C@@H](O)[C@H](O)[C@H]3O)ccc2Cl)cc1` [24a, (2S,3R,4R,5S,6R)-2-(4-chloro-3-(4-(ethoxy-1,1′-d)benzyl)phenyl)-6-(hydroxymethyl)tetrahydro-2H-pyran-3,4,5-triol], in series [1], the CL/F is 2.4 mL/min/kg, the AUC(0-t) was 20300 ± 1610 ng·h/mL, the “Cmax (mean ± SD)” value was determined as 2923 ± 393 ng/mL and the “t1/2 (mean ± SD)” value was determined as 4.56 ± 0.64 h. Besides, the “tmax (mean ± SD)” value in series [1] was determined as 52.8 ± 45 min.
Take `[2H]C([2H])([2H])Oc1ccc(Cc2cc([C@]3([2H])O[C@H](CO)[C@@H](O)[C@H](O)[C@H]3O)ccc2Cl)cc1` [24e, (2S,3R,4R,5S,6R)-2-(4-chloro-3-(4-(methoxy-d3)benzyl)phenyl)-6-(hydroxymethyl)tetrahydro-2H-pyran-2-d-3,4,5-triol]: the “Urinary Glucose Excretion in Rats, 0-4 h, % relative to Ref A” value in the series on SD rats (0-4 h) came out at 162%. Besides, the “Urinary Glucose Excretion in Rats, 0-24 h, % relative to Ref A” value in the series on SD rats (0-24 h) is 101%. Moreover, the “Urinary Glucose Excretion in Rats, 4-24 h, % relative to Ref A” value with SD rats (4-24 h) turned out to be 97%. Besides, the “Urinary Glucose Excretion in Rats, 0-4 h (mean ± SD)” value in the series on SD rats (glucose 2 g/kg 1 h post dose, 0-4 h) was 236 ± 48 mg. Also, the “Urinary Glucose Excretion in Rats, 0-24 h (mean ± SD)” value in the series with SD rats (glucose 2 g/kg 1 h post dose, 0-24 h) is 2525 ± 266 mg. Besides, the “Urinary Glucose Excretion in Rats, 4-24 h (mean ± SD)” value with SD rats (glucose 2 g/kg 1 h post dose, 4-24 h) turned out to be 2288 ± 287 mg.
On to `OC[C@H]1O[C@@H](c2ccc(Cl)c(Cc3ccc(C4CC4)cc3)c2)[C@H](O)[C@@H](O)[C@@H]1O` [Ref C, (2S,3R,4R,5S,6R)-2-(4-chloro-3-(4-cyclopropylbenzyl)phenyl)-6-(hydroxymethyl)tetrahydro-2H-pyran-3,4,5-triol, reference compound], for which, in series [1], the CL/F was 5.2 mL/min/kg, the highest level (Cmax) was 1050 ± 230 ng/mL, the time to peak (Tmax) came out at 3 ± 1.15 h and the AUC(0-t) worked out at 9770 ± 2180 ng·h/mL. The half-life in series [1] is 257 ± 48 min.
For the compound `OC[C@H]1O[C@@H](c2ccc(Cl)c(Cc3ccc(OCCOCC(F)F)cc3)c2)[C@H](O)[C@@H](O)[C@@H]1O` [Ref F, (2S,3R,4R,5S,6R)-2-(4-chloro-3-(4-(2-(2,2-difluoroethoxy)ethoxy)benzyl)phenyl)-6-(hydroxymethyl)tetrahydro-2H-pyran-3,4,5-triol, reference compound], in the series with beagle dogs (separate experiment (Table 4A), 0-8 h), the “Urinary Glucose Excretion in Dogs, 0-8 h (mean ± SD)” value was determined as 1927 ± 307 mg. The “Urinary Glucose Excretion in Dogs, 0-24 h (mean ± SD)” value in the series with beagle dogs (setting [3]) came to 13438 ± 5237 mg. Moreover, the “Urinary Glucose Excretion in Dogs, 8-24 h (mean ± SD)” value with beagle dogs (separate experiment (Table 4A), 8-24 h) came out at 11511 ± 5327 mg. For the same compound, in series [2], the AUC(0-t) turned out to be 4920 ± 484 ng·h/mL, the CL/F was 3.17 mL/min/kg, the Cmax was 889 ± 65.4 ng/mL and the Tmax was 24 ± 6 min.
In the case of `OC[C@H]1O[C@@H](c2ccc(Cl)c(Cc3ccc(OCCOC4CC4)cc3)c2)[C@H](O)[C@@H](O)[C@@H]1O` [Ref G, (2S,3R,4R,5S,6R)-2-(4-chloro-3-(4-(2-cyclopropoxyethoxy)benzyl)phenyl)-6-(hydroxymethyl)tetrahydro-2H-pyran-3,4,5-triol, reference compound], in series [1], the CL/F is 11.8 mL/min/kg, the Cmax amounted to 594 ± 85.8 ng/mL, the Tmax was 1.88 ± 1.55 h and the AUC(0-t) stood at 4240 ± 405 ng·h/mL. Further, in series [1], the half-life was 203 ± 40.8 min.
As to `[2H]C([2H])(c1ccc(OC([2H])([2H])C([2H])([2H])[2H])cc1)c1cc([C@@H]2O[C@H](CO)[C@@H](O)[C@H](O)[C@H]2O)ccc1Cl` [compound 16, (2S,3R,4R,5S,6R)-2-(4-chloro-3-((4-(ethoxy-d5)phenyl)methyl-d2)phenyl)-6-(hydroxymethyl)tetrahydro-2H-pyran-3,4,5-triol], the “Urinary Glucose Excretion in Dogs, 0-8 h (mean ± SD)” value in the series on beagle dogs (0.03 mg/kg oral, glucose 2 g/kg 1 h post dose, 0-8 h (Table 4)) is recorded as 4362 ± 818 mg. Moreover, in the series on beagle dogs (0.03 mg/kg oral, glucose 2 g/kg 1 h post dose, 0-24 h (Table 4)), the “Urinary Glucose Excretion in Dogs, 0-24 h (mean ± SD)” value stood at 15357 ± 2514 mg. In addition, the “Urinary Glucose Excretion in Dogs, 8-24 h (mean ± SD)” value in the series with beagle dogs (0.03 mg/kg oral, glucose 2 g/kg 1 h post dose, 8-24 h (Table 4)) amounted to 10995 ± 1987 mg. Besides, in series [1], the CL/F is 2.3 mL/min/kg, the AUC(0-t) stood at 21000 ± 4370 ng·h/mL, the “Cmax (mean ± SD)” value was found to be 2683 ± 471 ng/mL and the “t1/2 (mean ± SD)” value is recorded as 5.70 ± 0.63 h. The “tmax (mean ± SD)” value in series [1] amounted to 60 ± 42.6 min.
As to `[2H]C([2H])(c1ccc(C2CC2)cc1)c1cc([C@@H]2O[C@H](CO)[C@@H](O)[C@H](O)[C@H]2O)ccc1Cl` [compound 54, (2S,3R,4R,5S,6R)-2-(4-chloro-3-((4-cyclopropylphenyl)methyl-d2)phenyl)-6-(hydroxymethyl)tetrahydro-2H-pyran-3,4,5-triol], in series [1], the CL/F is 4.4 mL/min/kg, the highest concentration (Cmax) came to 1270 ± 138 ng/mL, the Tmax came out at 2 h and the AUC(0-t) was determined as 10600 ± 1600 ng·h/mL. For the same compound, the half-life in series [1] was 365 ± 115 min.
Consider `[2H]C([2H])(c1ccc(OCCOCC(F)F)cc1)c1cc([C@@H]2O[C@H](CO)[C@@H](O)[C@H](O)[C@H]2O)ccc1Cl` [compound 87, (2S,3R,4R,5S,6R)-2-(4-chloro-3-((4-(2-(2,2-difluoroethoxy)ethoxy)phenyl)methyl-d2)phenyl)-6-(hydroxymethyl)-tetrahydro-2H-pyran-3,4,5-triol], for which the “Urinary Glucose Excretion in Dogs, 0-24 h (mean ± SD)” value in the series with beagle dogs (setting [3]) is reported as 16858 ± 674 mg. Moreover, in series [2], the AUC(0-t) stood at 8880 ± 1440 ng·h/mL, the CL/F was 1.85 mL/min/kg, the highest concentration (Cmax) came out at 1580 ± 282 ng/mL and the Tmax turned out to be 36 ± 24 min.
In the case of `[2H]C([2H])(COc1ccc(Cc2cc([C@@H]3O[C@H](CO)[C@@H](O)[C@H](O)[C@H]3O)ccc2Cl)cc1)OC1CC1` [compound 95, (2S,3R,4R,5S,6R)-2-(4-chloro-3-(4-(2-cyclopropoxy(ethoxy-2,2-d2))benzyl)phenyl)-6-(hydroxymethyl)tetrahydro-2H-pyran-3,4,5-triol], in series [1], the CL/F was 9.2 mL/min/kg, the highest concentration (Cmax) was found to be 710 ± 76.4 ng/mL, the Tmax is 2.13 ± 1.44 h and the AUC(0-t) was determined as 5240 ± 328 ng·h/mL. Further, the half-life in series [1] was 290 ± 85.2 min.
